In patent US20250074890A1, “CYANOPYRIDINE AND CYANOPYRIMIDINE BCL6 DEGRADERS” (DANA-FARBER CANCER INSTITUTE, INC., priority 2021, published 2025):

The compounds below were run against T1, BCL6 (Homo sapiens, UniProt P41182) (assay: HiBiT cellular degradation assay in Su-DHL-4 cells). Settings: concentration to reach 50% degradation of endogenous SmBiT-tagged BCL6, 24 hours of compound treatment.
T1 construct: Endogenous BCL6 was tagged with the 11-amino acid SmBiT through CRISPR/Cas9 gene editing; endogenous in cells; host or cells: Su-DHL-4 (CRISPR/Cas9 knock-in, single cell clone)
Assay type: cell-based
In short: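 SU-DHL-4 cells with endogenous BCL6 SmBiT-tagged by CRISPR/Cas9 treated with compound for 24 hours, then lysed and LgBiT added to reconstitute nanoluciferase; luminescence read after substrate addition. Degradation as percentage of DMSO control; DC50 is concentration giving 50% degradation.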

Row | SMILES | DC50
1 | CNC(=O)COc1cc2cc(Nc3ncc(C#N)c(N4C[C@@H](C)C(F)(F)[C@@H](C)C4)n3)ccc2n(C)c1=O [Compound 1, 2-((6-((5-cyano-4-((3S,5R)-4,4-difluoro-3,5-dimethylpiperidin-1-yl)pyrimidin-2-yl)amino)-1-methyl-2-oxo-1,2-dihydroquinolin-3-yl)oxy)-N-methylacetamide] | 6 nM
2 | CNCC(O)Cn1c(=O)c(OCC(=O)NC)cc2cc(Nc3nc(N4C[C@@H](C)C(F)[C@@H](C)C4)c(C#N)cc3Cl)ccc21 (stereo partly drawn) [Compound 67, 2-((6-((3-Chloro-5-cyano-6-((3S,4S,5R)-4-fluoro-3,5-dimethylpiperidin-1-yl)pyridin-2-yl)amino)-1-(2-hydroxy-3-(methylamino)propyl)-2-oxo-1,2-dihydroquinolin-3-yl)oxy)-N-methylacetamide] | 4 nM
3 | CNC(=O)COc1cc2cc(Nc3nc(N4CC(C)CC(O)C4)c(C#N)cc3Cl)ccc2n(CCN(C)C)c1=O (centres unmarked) [Compound 76, 2-((6-((3-Chloro-5-cyano-6-(3-hydroxy-5-methylpiperidin-1-yl)pyridin-2-yl)amino)-1-(2-(dimethylamino)ethyl)-2-oxo-1,2-dihydroquinolin-3-yl)oxy)-N-methylacetamide] | 4 nM
4 | CNC(=O)COc1cc2cc(Nc3nc(N4C[C@@H](C)C(F)[C@@H](C)C4)c(C#N)cc3Cl)ccc2n(CCN(C)C)c1=O (stereo partly drawn) [Compound 77, 2-((6-((3-Chloro-5-cyano-6-((3R,4R,5S)-4-fluoro-3,5-dimethylpiperidin-1-yl)pyridin-2-yl)amino)-1-(2-(dimethylamino)ethyl)-2-oxo-1,2-dihydroquinolin-3-yl)oxy)-N-methylacetamide] | 4 nM
5 | C[C@@H]1C[C@H](N)CN(c2nc(Nc3ccc4c(c3)n(CCC(C)(C)O)c(=O)n4C)c(Cl)cc2C#N)C1 [Compound 36, 2-((3S,5R)-3-amino-5-methylpiperidin-1-yl)-5-chloro-6-((3-(3-hydroxy-3-methylbutyl)-1-methyl-2-oxo-2,3-dihydro-1H-benzo[d]imidazol-5-yl)amino)nicotinonitrile] | > 400 nM
6 | CNC(=O)COc1cc2cc(Nc3ncc(C#N)c(N4C[C@H](CCO)C(F)(F)[C@H](C)C4)n3)ccc2n(C)c1=O [Compound 3, 2-((6-((5-Cyano-4-((3S,5R)-4,4-difluoro-3-(2-hydroxyethyl)-5-methylpiperidin-1-yl)pyrimidin-2-yl)amino)-1-methyl-2-oxo-1,2-dihydroquinolin-3-yl)oxy)-N-methylacetamide] | 3 nM
7 | C[C@@H]1C[C@H](N)CN(c2nc(Nc3ccc4c(c3)c3c(c(=O)n4C)OCC(F)(F)[C@H](C4CC4)N3)c(Cl)cc2C#N)C1 [Compound 25, 2-((3S,5R)-3-Amino-5-methylpiperidin-1-yl)-5-chloro-6-(((S)-2-cyclopropyl-3,3-difluoro-7-methyl-6-oxo-1,2,3,4,6,7-hexahydro-[1,4]oxazepino[2,3-c]quinolin-10-yl)amino)nicotinonitrile] | > 400 nM
8 | C[C@@H]1CN(c2nc(Nc3ccc4c(c3)n(C[C@H]3COC(=O)N3)c(=O)n4C)c(F)cc2C#N)C[C@H](C)[C@@H]1F [Compound 89, 5-Fluoro-2-((3S,4S,5R)-4-fluoro-3,5-dimethylpiperidin-1-yl)-6-((1-methyl-2-oxo-3-(((S)-2-oxooxazolidin-4-yl)methyl)-2,3-dihydro-1H-benzo[d]imidazol-5-yl)amino)nicotinonitrile] | 102 nM
9 | C[C@H]1C[C@@H](N)CN(c2nc(Nc3ccc4c(c3)c3c(c(=O)n4C)OCC(F)(F)[C@H](C4CC4)N3)c(Cl)cc2C#N)C1 (single isomer, unassigned) [Compound 24] | 30 nM
10 | CNC(=O)COc1cc2cc(Nc3nc(N4C[C@@H](N)C(F)(F)[C@@H](C)C4)c(C#N)cc3Cl)ccc2n(CC2COC2)c1=O (single isomer, unassigned) [Compound 42] | 71 nM
11 | C[C@H]1CN(c2nc(Nc3ccc4c(c3)n(C[C@@H]3COC(=O)N3)c(=O)n4C)c(F)cc2C#N)C[C@@H](N)C1(F)F [Compound 60, 2-[(3R,5S)-3-Amino-4,4-difluoro-5-methyl-1-piperidyl]-5-fluoro-6-[[1-methyl-2-oxo-3-[[(R)-2-oxooxazolidin-4-yl]methyl]benzimidazol-5-yl]amino]pyridine-3-carbonitrile] | > 400 nM
12 | C[C@@H]1CN(c2nc(Nc3ccc4c(c3)cc(OC[C@@H]3CNCCO3)c(=O)n4C)c(Cl)cc2C#N)C[C@H](C)[C@@H]1F [Compound 70, 5-Chloro-2-((3S,4S,5R)-4-fluoro-3,5-dimethylpiperidin-1-yl)-6-((1-methyl-3-((S)-morpholin-2-ylmethoxy)-2-oxo-1,2-dihydroquinolin-6-yl)amino)nicotinonitrile] | > 400 nM
13 | CNC(=O)COc1cc2cc(Nc3nc(N4C[C@@H](N)C(F)(F)[C@@H](C)C4)c(C#N)cc3Cl)ccc2n(C)c1=O [Compound 44, 2-((6-((6-((3R,5S)-3-amino-4,4-difluoro-5-methylpiperidin-1-yl)-3-chloro-5-cyanopyridin-2-yl)amino)-1-methyl-2-oxo-1,2-dihydroquinolin-3-yl)oxy)-N-methylacetamide] | 70 nM
14 | C[C@@H]1CN(c2nc(Nc3ccc4c(c3)n(C[C@H]3CNC(=O)O3)c(=O)n4C)c(F)cc2C#N)C[C@H](C)[C@@H]1F [Compound 86, 5-Fluoro-2-((3S,4S,5R)-4-fluoro-3,5-dimethylpiperidin-1-yl)-6-((1-methyl-2-oxo-3-(((R)-2-oxooxazolidin-5-yl)methyl)-2,3-dihydro-1H-benzo[d]imidazol-5-yl)amino)nicotinonitrile] | 83 nM
15 | C[C@H]1CN(c2nc(Nc3ccc4c(c3)n(C[C@H]3COC(=O)N3)c(=O)n4C)c(F)cc2C#N)C[C@@H](N)C1(F)F [Compound 61, 2-((3R,5S)-3-amino-4,4-difluoro-5-methylpiperidin-1-yl)-5-fluoro-6-((1-methyl-2-oxo-3-(((S)-2-oxooxazolidin-4-yl)methyl)-2,3-dihydro-1H-benzo[d]imidazol-5-yl)amino)nicotinonitrile] | > 400 nM
16 | C[C@H]1C[C@@H](N)CN(c2nc(Nc3ccc4c(c3)n(CCC(C)(C)O)c(=O)n4C)c(Cl)cc2C#N)C1 [Compound 35, 2-((3R,5S)-3-Amino-5-methylpiperidin-1-yl)-5-chloro-6-((3-(3-hydroxy-3-methylbutyl)-1-methyl-2-oxo-2,3-dihydro-1H-benzo[d]imidazol-5-yl)amino)nicotinonitrile] | > 400 nM
17 | C[C@@H]1CN(c2nc(Nc3ccc4c(c3)n(CCC(C)(C)O)c(=O)n4C)c(Cl)cc2C#N)C[C@H](O)[C@@H]1F [Compound 50, 5-chloro-2-((3S,4R,5R)-4-fluoro-3-hydroxy-5-methylpiperidin-1-yl)-6-((3-(3-hydroxy-3-methylbutyl)-1-methyl-2-oxo-2,3-dihydro-1H-benzo[d]imidazol-5-yl)amino)nicotinonitrile] | 28 nM

Each compound was assayed on Su-DHL-4 cells (assay: CellTiter-Glo cell proliferation, BCL6 degrader with EZH2 inhibitors). Settings: EZH2 inhibitor at 480 nM added to BCL6 degrader (compound 1); Su-DHL-4 cells; 60% growth inhibition.
Assay type: cell-based
Method: Enhancer of zeste homolog 2 (EZH2) is a member of the polycomb repressive complex 2 (PRC2) that methylates histone 3 lysine 27, a mark that is associated with gene repression.
To ensure HiBiT signal decrease was due to BCL6 degradation and not from dying cells, CellTiter-Glo® (CTG, Promega™) was performed on the same number of cells that were treated for 24 hours with BCL6 degraders. To study the anti-proliferative effects of BCL6 degraders and its synergistic effect with EZH2 inhibitors, Su-DHL-4 and other DLBCL cells were treated with the compounds at DC99, DC75, DC50, or 1 μM followed by 5 days of culture, at which point CTG values and/or Caspase3/7 activities were measured as percent DMSO treated.

Row | SMILES | reduction of BCL6 degrader dose requirement to achieve GI60
18 | COc1cc(C)[nH]c(=O)c1CNC(=O)c1c(C)n([C@H](C)C2CCN(CC(F)(F)F)CC2)c2ccccc12 [Lira, Lirametostat, reference compound] | around 4.3 fold

Same assay, conditions: compound 1 (50 nM to 2 nM) added 48 hours after Tazemetostat or Lirametostat (10 μM to 5 nM); read five days later; over most of the concentration range

Row | SMILES | excess over Bliss (eob) score
19 | CNC(=O)COc1cc2cc(Nc3ncc(C#N)c(N4C[C@@H](C)C(F)(F)[C@@H](C)C4)n3)ccc2n(C)c1=O [Compound 1, 2-((6-((5-cyano-4-((3S,5R)-4,4-difluoro-3,5-dimethylpiperidin-1-yl)pyrimidin-2-yl)amino)-1-methyl-2-oxo-1,2-dihydroquinolin-3-yl)oxy)-N-methylacetamide] | > 1

Same assay, conditions: compound 1 with Tazemetostat or Lirametostat; Su-DHL-4 cells; over most of the concentration range

Row | SMILES | average synergy score (SynergyFinder)
20 | CNC(=O)COc1cc2cc(Nc3ncc(C#N)c(N4C[C@@H](C)C(F)(F)[C@@H](C)C4)n3)ccc2n(C)c1=O [Compound 1, 2-((6-((5-cyano-4-((3S,5R)-4,4-difluoro-3,5-dimethylpiperidin-1-yl)pyrimidin-2-yl)amino)-1-methyl-2-oxo-1,2-dihydroquinolin-3-yl)oxy)-N-methylacetamide] | over 10
